The values that follow come from patent publication US8450374B2, “Pan-antagonists for the androgen receptor and androgen receptor mutants associated with anti-androgen withdrawal” (priority 2009, dated 2013).

For one test, the target named is T1, AR W741L (Homo sapiens, UniProt P10275, W742L).
T1 construct: expressed in transfected cells; host or cells: CV-1
T1 sequence (P10275 1-920 W742L): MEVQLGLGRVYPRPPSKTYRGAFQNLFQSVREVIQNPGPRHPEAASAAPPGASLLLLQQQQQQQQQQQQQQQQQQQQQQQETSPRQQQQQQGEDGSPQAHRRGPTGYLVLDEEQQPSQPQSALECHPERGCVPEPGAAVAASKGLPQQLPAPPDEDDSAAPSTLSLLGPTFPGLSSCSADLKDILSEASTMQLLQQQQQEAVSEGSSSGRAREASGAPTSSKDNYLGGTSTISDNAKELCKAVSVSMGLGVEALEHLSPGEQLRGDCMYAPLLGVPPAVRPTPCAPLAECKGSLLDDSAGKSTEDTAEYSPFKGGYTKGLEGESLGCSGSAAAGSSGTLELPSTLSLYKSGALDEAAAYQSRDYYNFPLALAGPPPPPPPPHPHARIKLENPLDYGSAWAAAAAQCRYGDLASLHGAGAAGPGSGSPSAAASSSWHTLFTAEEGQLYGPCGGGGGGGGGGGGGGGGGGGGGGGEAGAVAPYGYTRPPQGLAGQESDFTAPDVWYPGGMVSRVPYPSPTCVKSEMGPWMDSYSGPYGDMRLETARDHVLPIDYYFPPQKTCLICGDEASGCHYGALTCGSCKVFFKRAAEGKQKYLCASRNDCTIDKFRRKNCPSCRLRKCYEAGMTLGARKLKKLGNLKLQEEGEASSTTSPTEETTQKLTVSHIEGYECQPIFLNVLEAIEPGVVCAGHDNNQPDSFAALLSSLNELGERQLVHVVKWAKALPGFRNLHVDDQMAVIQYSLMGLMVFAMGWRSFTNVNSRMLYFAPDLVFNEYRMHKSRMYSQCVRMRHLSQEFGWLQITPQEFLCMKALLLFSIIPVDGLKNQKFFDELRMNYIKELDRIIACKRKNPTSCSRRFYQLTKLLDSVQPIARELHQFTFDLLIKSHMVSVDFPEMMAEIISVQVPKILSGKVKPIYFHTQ
The experiment in a line: Transcription assay (ARE-luciferase reporter) in CV-1 cells, AR W741L. Type of test: cell-based. To be noted: for Antagonist efficacy (RLU value at IC50), AR W741L: in competition with 250 nM DHT. On the procedure:
(§1) Twenty-four hours prior to transfection, CV-1 cells were seeded at a density of 45,000 cells per well in 24-well cell culture plates and grown in phenol red free Dulbecco's Modified Eagle Medium (DMEM) supplemented with 10% cosmic calf serum (COS). ARE-luciferase reporter and Renilla-Luc as the internal standard and a prokaryotic expression vector encoding the wild-type androgen receptor or mutant androgen receptor were transfected with Lipofectamine (Invitrogen) following manufacturer's protocol. Five hours after transfection, media was added containing the appropriate concentrations of ligands. The cells were allowed to incubate for 38 hours before harvesting by passive lysis buffer. Cell extracts were immediately assayed using the Dual Luciferase Assay (Promega) with a Perkin-Elmer Microbeta Luminometer. […] Dose-response data was analyzed by nonlinear regression analysis using GraphPad Prism.
In general terms: Reporter assays use an easily measured gene product as a stand-in for the process of interest.

The target in a further test is T2, AR T877A (Homo sapiens, UniProt P10275, T878A).
T2 sequence (P10275 1-920 T878A): T1 sequence (P10275 1-920 W742L) with L742W, T878A
As to the kind of experiment: Transcription assay (ARE-luciferase reporter) in CV-1 cells, AR T877A. Type of test: cell-based. Details: expressed in transfected cells; host or cells: CV-1. To be noted: for Antagonist efficacy (RLU value at IC50), AR T877A: in competition with 10 nM DHT. On the procedure:
as §1

In general, IC50 refers to the point on the concentration scale where inhibition reaches its midpoint. High values mean weaker potency in that assay, low ones greater potency in that assay.

Where a chain is given by its changes, count along the chain named.

With `CN(C)CCCOc1cccc(Cc2ccccc2S(=O)(=O)CC(C)(O)C(=O)Nc2ccc(C#N)c(C(F)(F)F)c2)c1` (stereo not shown) [PAN22], on AR W741L, the IC50 is 3 ± 1.8 µM and the “Antagonist efficacy (RLU value at IC50), AR W741L” value (shortened to “Antagonist efficacy … AR W741L”) is listed as “(52% ± 4.9%)”. On AR T877A, the IC50 amounted to 1.8 ± 0.3 µM and the “Antagonist efficacy (RLU value at IC50), AR T877A” value (from here on “Antagonist efficacy … AR T877A”) is recorded as “(53% ± 3.8%)”.

For the compound `CC(O)(CS(=O)(=O)c1ccccc1-c1ccccc1O)C(=O)Nc1ccc(C#N)c(C(F)(F)F)c1` (stereo not shown) [PAN41, N-(4-cyano-3-(trifluoromethyl)phenyl)-2-hydroxy-3-(2′-hydroxybiphenyl-2-ylsulfonyl)-2-methylpropanamide], at AR W741L, the midpoint of inhibition, the IC50, lay at 5.8 ± 1.6 µM and the “Antagonist efficacy … AR W741L” value is “(50% ± 1.0%)”. On AR T877A, the IC50 amounted to 3.9 ± 1.9 µM and the “Antagonist efficacy … AR T877A” value is recorded as “(53% ± 10%)”.

Consider `CN(C)CCCOc1cccc(-c2ccccc2S(=O)(=O)CC(C)(O)C(=O)Nc2ccc(C#N)c(C(F)(F)F)c2)c1` (stereo not shown) [PAN52], for which, at AR W741L, the IC50 was 12.2 ± 6.2 µM and the “Antagonist efficacy … AR W741L” value is given as “(53% ± 5.2%)”. Further, at AR T877A, the IC50 turned out to be 4 ± 2.2 µM and the “Antagonist efficacy … AR T877A” value is reported as “(52% ± 2.5%)”.

Regarding `CN(C)CCCOc1ccc(-c2ccccc2S(=O)(=O)CC(C)(O)C(=O)Nc2ccc(C#N)c(C(F)(F)F)c2)cc1` (stereo not shown) [PAN62], on AR W741L, the IC50 was determined as 11 ± 11 µM and the “Antagonist efficacy … AR W741L” value is recorded as “(62% ± 12%)”. On AR T877A, the half-maximal inhibitory concentration (IC50) is 5 ± 3.2 µM and the “Antagonist efficacy … AR T877A” value is given as “(56% ± 5.9%)”.
